Tests used:
Cbl-b [1] = target: T1, Cbl-b (Homo sapiens, UniProt Q13191); experiment: Cbl-b inhibition assay (Cbl-b activity assay, FRET, Biological Example 1; 100 mM NaCl, 60 nM Src kinase); type: biochemical; settings: upper bound stated in text lists; read-out: IC50 values in the Cbl-b inhibition assay of Biological Example 1
How it was run: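 N-terminally biotinylated Avi-tagged Cbl-b was mixed with Src kinase, UbcH5B covalently conjugated to Bodipy-fluorescein ubiquitin, and streptavidin-terbium. Src phosphorylation lets Cbl-b bind UbcH5B-Ub, giving terbium-fluorescein FRET; inhibition is read as loss of FRET signal.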

T-cell [2] = experiment: IL-2 secretion from T-cells co-stimulated with anti-CD3 and anti-CD28 antibody (Biological Example 2); type: cell-based, human; settings: Homo sapiens, T-cell, read-out: IL-2 secretion Anti-CD3/Anti-CD28 stimulation; for fold induction at 0.3 µM: 0.3 μM Cbl-b inhibitor; for fold induction at 1 µM: 1 μM Cbl-b inhibitor; for fold induction at 4 µM: 4 μM Cbl-b inhibitor
How it was run: (§1)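 Values are fold-change over baseline: readings (IL-2 release, CD25 staining) from inhibitor-treated T-cells divided against untreated cells […]. No detailed procedure stated.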

T-cell [3] = experiment: IL-2 secretion from T-cells stimulated with anti-CD3 antibody alone (Biological Example 2); type: cell-based, human; settings: T-cell, read-out: IL-2 secretion Anti-CD3 stimulation; for fold induction at 1 µM: 1 μM Cbl-b inhibitor; for fold induction at 8 µM: 8 μM Cbl-b inhibitor
T-cell [4] = experiment: CD25 cell surface staining on T-cells co-stimulated with anti-CD3 and anti-CD28 antibody (Biological Example 2); type: cell-based, human; settings: Homo sapiens, T-cell, read-out: CD25 staining Anti-CD3/Anti-CD28 stimulation; for fold induction at 0.3 µM: 0.3 μM Cbl-b inhibitor; for fold induction at 1 µM: 1 μM Cbl-b inhibitor; for fold induction at 4 µM: 4 μM Cbl-b inhibitor
How it was run: as §1

T-cell [5] = experiment: CD25 cell surface staining on T-cells stimulated with anti-CD3 antibody alone (Biological Example 2); type: cell-based, human; settings: T-cell, read-out: CD25 staining Anti-CD3 stimulation; for fold induction at 1 µM: 1 μM Cbl-b inhibitor; for fold induction at 8 µM: 8 μM Cbl-b inhibitor
Cbl-b [6] = target: T1, Cbl-b; experiment: Cbl-b activity assay (Cbl-b inhibition assay), TR-FRET of Cbl-b interaction with UbcH5B-Ub; type: biochemical; settings: assay buffer with 100 mM NaCl, 60 nM Src kinase; read-out: Cbl-b activity IC50
How it was run: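 Compound-treated Cbl-b was incubated 1.5 h with Src kinase (60 nM final; 30 nM for asterisked values, which also used 50 mM instead of 100 mM NaCl), 1 mM ATP and 5 mM MgCl2. Binding to fluorescent Ub-loaded UbcH5B (C85K mutant) was then read by TR-FRET after 1 h more.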

[7] = fold change over baseline (anti-CD3/anti-CD28 stimulated T-cells without inhibitor)
[8] = Homo sapiens, fold change over baseline (anti-CD3/anti-CD28 stimulated T-cells without inhibitor)
[9] = fold change over baseline, primary human total T-cells

T1 sequence (Q13191 36-427): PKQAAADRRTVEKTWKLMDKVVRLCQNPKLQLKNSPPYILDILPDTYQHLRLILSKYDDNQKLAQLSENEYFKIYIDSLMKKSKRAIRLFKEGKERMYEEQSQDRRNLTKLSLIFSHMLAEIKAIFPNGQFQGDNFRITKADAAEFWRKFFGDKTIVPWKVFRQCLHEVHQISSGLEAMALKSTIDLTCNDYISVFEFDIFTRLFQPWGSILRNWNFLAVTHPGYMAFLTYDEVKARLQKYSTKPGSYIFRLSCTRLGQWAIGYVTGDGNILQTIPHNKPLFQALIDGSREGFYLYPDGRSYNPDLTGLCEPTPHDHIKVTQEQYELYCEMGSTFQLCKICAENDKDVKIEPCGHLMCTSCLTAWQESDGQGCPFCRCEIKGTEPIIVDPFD

Structure (SMILES) | IC50 (Cbl-b [1]) | fold induction at 0.3 µM (T-cell [2]; [7]) | fold induction at 1 µM (T-cell [2]; [7]) | fold induction at 1 µM (T-cell [3]; [8]) | fold induction at 0.3 µM (T-cell [4]; [7]) | fold induction at 1 µM (T-cell [4]; [7]) | fold induction at 1 µM (T-cell [5]; [8]) | IC50 (Cbl-b [6]) | fold induction at 0.3 µM (T-cell [2]; [9]) | fold induction at 1 µM (T-cell [2]; [9]) | fold induction at 4 µM (T-cell [2]; [9]) | fold induction at 1 µM (T-cell [3]; [9]) | fold induction at 8 µM (T-cell [3]; [9]) | fold induction at 0.3 µM (T-cell [4]; [9]) | fold induction at 1 µM (T-cell [4]; [9]) | fold induction at 4 µM (T-cell [4]; [9]) | fold induction at 1 µM (T-cell [5]; [9]) | fold induction at 8 µM (T-cell [5]; [9])
COC1CCN(Cc2cc3c(c(C(F)(F)F)c2)CN(c2cccc(C4(Cc5nncn5C)COC4)c2)C3=O)CC1 [Example 632, 6-((4-methoxypiperidin-1-yl)methyl)-2-(3-(3-((4-methyl-4H-1,2,4-triazol-3-yl)methyl)oxetan-3-yl)phenyl)-4-(trifluoromethyl)isoindolin-1-one] | ≤ 0.1 µM | > 7.5 | > 7.5 | > 0.201 | 1.31 to 1.5 | 1.51 to 1.75 | > 1 | < 0.1 µM | – | – | – | – | – | – | – | – | – | –
CN1CC2CCC1CN2c1cc2c(c(C(F)(F)F)c1)CN(c1cccc([C@@](C)(F)C(F)(F)c3nncn3C)c1)C2=O (stereo partly drawn) [Example 565, 6-(5-Methyl-2,5-diazabicyclo[2.2.2]octan-2-yl)-2-(3-((R)-1,1,2-trifluoro-1-(4-methyl-4H-1,2,4-triazol-3-yl)propan-2-yl)phenyl)-4-(trifluoromethyl)isoindolin-1-one] | ≤ 0.1 µM | 1.01 to 2.5 | 2.51 to 5 | 0.101 to 0.15 | 1.31 to 1.5 | 1.31 to 1.5 | > 1 | < 0.1 µM | – | – | – | – | – | – | – | – | – | –
C[C@@H](Cc1nncn1C)c1cccc(NC(=O)c2cc(C(=O)N3CC[C@H](O)C3)cc(C3CC3)n2)c1 [Compound 221, 6-Cyclopropyl-4-[(3S)-3-hydroxypyrrolidine-1-carbonyl]-N-[3-[(1S)-1-methyl-2-(4-methyl-1,2,4-triazol-3-yl)ethyl]phenyl]pyridine-2-carboxamide] | ≤ 1 µM | – | – | – | – | – | – | 0.301 to 1 µM | < 1 | < 1 | < 1 | 0.051 to 0.1 | 0.051 to 0.1 | 1.01 to 1.3 | 1.31 to 1.5 | 1.31 to 1.5 | < 0.6 | < 0.6
CN1CC2CC(C1)N2c1cc(C(=O)Nc2cccc(C3(Cc4nncn4C)COC3)c2)nc(C2CC2)n1 [Example 572, 2-Cyclopropyl-N-(3-(3-((4-methyl-4H-1,2,4-triazol-3-yl)methyl)oxetan-3-yl)phenyl)-6-(3-methyl-3,6-diazabicyclo[3.1.1]heptan-6-yl)pyrimidine-4-carboxamide] | ≤ 0.1 µM | > 7.5 | > 7.5 | > 0.201 | 1.31 to 1.5 | 1.31 to 1.5 | > 1 | < 0.1 µM | – | – | – | – | – | – | – | – | – | –
C[C@@H]1CCN(Cc2cc3c(c(C(F)(F)F)c2)CN(c2cccc(C4(Cc5nncn5C)COC4)c2)C3=O)C[C@H]1F (relative stereo) [Example 631, 6-((trans-3-fluoro-4-methylpiperidin-1-yl)methyl)-2-(3-(3-((4-methyl-4H-1,2,4-triazol-3-yl)methyl)oxetan-3-yl)phenyl)-4-(trifluoromethyl)isoindolin-1-one] | ≤ 0.1 µM | > 7.5 | > 7.5 | > 0.201 | 1.31 to 1.5 | 1.51 to 1.75 | > 1 | < 0.1 µM | – | – | – | – | – | – | – | – | – | –
COc1cccc2c1CN(Cc1cc3c(c(C(F)(F)F)c1)CN(c1cccc(C4(Cc5nncn5C)COC4)c1)C3=O)C2 [Example 702, 6-((4-methoxyisoindolin-2-yl)methyl)-2-(3-(3-((4-methyl-4H-1,2,4-triazol-3-yl)methyl)oxetan-3-yl)phenyl)-4-(trifluoromethyl)isoindolin-1-one] | ≤ 0.1 µM | 5 to 7.5 | > 7.5 | > 0.201 | 1.51 to 1.75 | 1.51 to 1.75 | > 1 | < 0.1 µM | – | – | – | – | – | – | – | – | – | –
Cn1cnnc1CC1(c2cccc(N3Cc4c(cc(CN5CCC[C@@H](F)C5)cc4C(F)(F)F)C3=O)c2)COC1 [Example 623, (R)-6-((3-fluoropiperidin-1-yl)methyl)-2-(3-(3-((4-methyl-4H-1,2,4-triazol-3-yl)methyl)oxetan-3-yl)phenyl)-4-(trifluoromethyl)isoindolin-1-one] | ≤ 0.1 µM | > 7.5 | > 7.5 | > 0.201 | 1.31 to 1.5 | 1.31 to 1.5 | > 1 | < 0.1 µM | – | – | – | – | – | – | – | – | – | –
Cn1cnnc1CC1(c2cccc(N3Cc4c(cc(C5=CN6CCC5CC6)cc4C(F)(F)F)C3=O)c2)COC1 [Example 559, 6-(l-azabicyclo[2.2.2]oct-2-en-3-yl)-2-(3-(3-((4-methyl-4H-1,2,4-triazol-3-yl)methyl)oxetan-3-yl)phenyl)-4-(trifluoromethyl)isoindolin-1-one] | ≤ 0.3 µM | 1.01 to 2.5 | 2.51 to 5 | < 0.05 | 1.01 to 1.3 | 1.01 to 1.3 | 0.601 to 0.8 | 0.1 to 0.3 µM | – | – | – | – | – | – | – | – | – | –
Cc1cc(C(=O)Nc2cccc(C3(Cc4nncn4C)COC3)c2)n2ncc(C)c2n1 [Example 606, 3,5-dimethyl-N-(3-(3-((4-methyl-4H-1,2,4-triazol-3-yl)methyl)oxetan-3-yl)phenyl)pyrazolo[1,5-a]pyrimidine-7-carboxamide] | ≤ 0.1 µM | 2.51 to 5 | 2.51 to 5 | 0.051 to 0.1 | 1.01 to 1.3 | 1.01 to 1.3 | 0.801 to 1 | < 0.1 µM | – | – | – | – | – | – | – | – | – | –
Cn1cnnc1CC1(c2cccc(N3Cc4c(cc(CN5Cc6ccccc6C5)cc4C(F)(F)F)C3=O)c2)COC1 [Example 654, 6-(isoindolin-2-ylmethyl)-2-(3-(3-((4-methyl-4H-1,2,4-triazol-3-yl)methyl)oxetan-3-yl)phenyl)-4-(trifluoromethyl)isoindolin-1-one] | ≤ 0.1 µM | 5 to 7.5 | > 7.5 | > 0.201 | 1.31 to 1.5 | 1.31 to 1.5 | > 1 | < 0.1 µM | – | – | – | – | – | – | – | – | – | –
Cn1cnnc1CC1(c2cccc(NC(=O)c3ccnc(C(F)(F)F)n3)c2)COC1 [Compound 337, N-(3-(3-((4-methyl-4H-1,2,4-triazol-3-yl)methyl)oxetan-3-yl)phenyl)-2-(trifluoromethyl)pyrimidine-4-carboxamide] | ≤ 0.3 µM | – | – | – | – | – | – | 0.1 to 0.3 µM | 1.01 to 2.5 | 2.51 to 5 | 2.51 to 5 | 0.051 to 0.1 | 0.151 to 0.2 | 1.01 to 1.3 | 1.01 to 1.3 | 1.01 to 1.3 | 0.601 to 0.8 | > 1
Cc1nc2c(o1)CCN(Cc1cc3c(c(C(F)(F)F)c1)CN(c1cccc(C4(Cc5nncn5C)COC4)c1)C3=O)C2 [Example 649, 2-(3-(3-((4-methyl-4H-1,2,4-triazol-3-yl)methyl)oxetan-3-yl)phenyl)-6-((2-methyl-6,7-dihydrooxazolo[4,5-c]pyridin-5(4H)-yl)methyl)-4-(trifluoromethyl)isoindolin-1-one] | ≤ 0.1 µM | 5 to 7.5 | > 7.5 | > 0.201 | 1.01 to 1.3 | 1.31 to 1.5 | > 1 | < 0.1 µM | – | – | – | – | – | – | – | – | – | –

Reference: US20220324835A1 (Nurix Therapeutics, Inc., priority 2018, published 2022)
